Results from ChEMBL document CHEMBL5370585, “Exploration and Biological Evaluation of 1,3-Diamino-7H-pyrrol[3,2-f]quinazoline Derivatives as Dihydrofolate Reductase Inhibitors” (J Med Chem, 2023).
In brackets after ≈: the same amount, converted by molar mass.

Tests used:
[1] = tested on: Staphylococcus aureus; experiment: Antibacterial activity against methicillin-resistant Staphylococcus aureus ATCC 43300 incubated for 16 to 18 hrs by CLSI based broth dilution method; format: functional; conditions: time 16-18 hrs
[2] = tested on: Escherichia coli; experiment: Antibacterial activity against Escherichia coli ATCC 25922 incubated for 16 to 18 hrs by CLSI based broth dilution method; format: functional; conditions: time 16-18 hrs
[3] = tested on: Enterococcus faecalis; experiment: Antibacterial activity against Enterococcus faecalis ATCC 29212 incubated for 16 to 18 hrs by CLSI based broth dilution method; format: functional; conditions: time 16-18 hrs
[4] = tested on: HepG2; experiment: Cytotoxicity against human HepG2 cells measured after 72 hrs by MTT assay; format: functional, cell-based; conditions: HepG2, 72 h
[5] = tested on: HCT-116; experiment: Cytotoxicity against human HCT-116 cells measured after 72 hrs by MTT assay; format: functional, cell-based; conditions: HCT-116, 72 h
[6] = tested on: Acinetobacter baumannii; experiment: Antibacterial activity against Acinetobacter baumannii ATCC 19606 incubated for 16 to 18 hrs by CLSI based broth dilution method; format: functional; conditions: time 16-18 hrs
[7] = tested on: MCF7; experiment: Cytotoxicity against human MCF7 cells measured after 72 hrs by MTT assay; format: functional, cell-based; conditions: MCF7, 72 h
[8] = tested on: HGC-27; experiment: Cytotoxicity against human HGC-27 cells measured after 72 hrs by MTT assay; format: functional, cell-based; conditions: HGC-27, 72 h
[9] = tested on: Staphylococcus aureus; experiment: Antibacterial activity against Staphylococcus aureus ATCC 29213 incubated for 16 to 18 hrs by CLSI based broth dilution method; format: functional; conditions: time 16-18 hrs
[10] = tested on: Staphylococcus epidermidis; experiment: Antibacterial activity against Staphylococcus epidermidis ATCC 12228 incubated for 16 to 18 hrs by CLSI based broth dilution method; format: functional; conditions: time 16-18 hrs
[11] = biological target: T1, Dihydrofolate reductase (Homo sapiens) (UniProt P00374); experiment: Inhibition of human DHFR at 1 uM incubated for 10 mins in presence of NADPH by colorimetry based analysis relative to control
T1 sequence (whole entry): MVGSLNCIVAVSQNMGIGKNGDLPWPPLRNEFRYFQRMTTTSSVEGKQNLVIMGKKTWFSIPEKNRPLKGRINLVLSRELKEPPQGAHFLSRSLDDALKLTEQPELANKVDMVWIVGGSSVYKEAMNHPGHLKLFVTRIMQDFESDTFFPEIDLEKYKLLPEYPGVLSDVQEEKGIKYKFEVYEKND

| Structure (SMILES) | MIC [1] [µg/mL] | MIC [2] [µg/mL] | MIC [3] [µg/mL] | IC50 [4] [nM] | IC50 [5] [nM] | MIC [6] [µg/mL] | IC50 [7] [nM] | IC50 [8] [nM] | MIC [9] [µg/mL] | MIC [10] [µg/mL] | inhibition [11] [%] |
| --- | --- | --- | --- | --- | --- | --- | --- | --- | --- | --- | --- |
| Nc1nc(N)c2c(ccc3c2ccn3Cc2ccc3sc(N)nc3c2)n1 | 8 (≈ 22.1 µM) | > 8 | > 8 | > 10000 | > 10000 | > 32 | > 10000 | > 10000 | > 8 | 2 (≈ 5.53 µM) |  |
| COc1cc(Cc2cnc(N)nc2N)c2c(c1OC)OC(C1CC1)C=C2 (stereo not given) | 0.06 (≈ 0.169 µM) | 1 (≈ 2.82 µM) | 0.06 (≈ 0.169 µM) |  |  |  |  |  | 0.06 (≈ 0.169 µM) | ≤ 0.004 |  |
| CCOC(=O)c1ccc(Cn2ccc3c4c(N)nc(N)nc4ccc32)c2ccccc12 | 0.25 (≈ 0.608 µM) | 64 (≈ 156 µM) | 0.5 (≈ 1.22 µM) | 530 | 870 |  | 8250 | < 100 | 0.5 (≈ 1.22 µM) | ≤ 0.06 | 70.9 |
| COc1ccc2nc(Cn3ccc4c5c(N)nc(N)nc5ccc43)sc2c1 | 0.25 (≈ 0.664 µM) | 2 (≈ 5.31 µM) | 0.5 (≈ 1.33 µM) | 2710 | 4420 |  | 1190 | 820 | 0.5 (≈ 1.33 µM) | ≤ 0.004 | 38.7 |
| COC(=O)c1ccc2nc(Cn3ccc4c5c(N)nc(N)nc5ccc43)ccc2c1 | 0.25 (≈ 0.627 µM) | 2 (≈ 5.02 µM) | 0.25 (≈ 0.627 µM) | 430 | 210 |  | 850 | < 100 | 0.5 (≈ 1.25 µM) | 0.25 (≈ 0.627 µM) | 64.5 |
| Nc1nc(N)c2c(ccc3c2ccn3Cc2ccc(B(O)O)c3ccccc23)n1 | 0.125 (≈ 0.326 µM) | 1 (≈ 2.61 µM) | 0.125 (≈ 0.326 µM) | < 100 | < 100 |  | 110 | < 100 | 0.25 (≈ 0.652 µM) | ≤ 0.004 | 77.4 |
| COC(=O)c1ccc2nc(Cn3ccc4c5c(N)nc(N)nc5ccc43)sc2c1 | 2 (≈ 4.94 µM) | > 8 | 2 (≈ 4.94 µM) | 490 | 720 | > 32 | > 10000 | 240 | 4 (≈ 9.89 µM) | 0.008 (≈ 0.0198 µM) |  |
| Nc1nc(N)c2c(ccc3c2ccn3Cc2ccc3ccccc3c2)n1 | 0.25 (≈ 0.737 µM) | 0.5 (≈ 1.47 µM) | 0.5 (≈ 1.47 µM) | 110 | 50 |  | > 1000 | 29 | 0.5 (≈ 1.47 µM) | 0.5 (≈ 1.47 µM) | 70.9 |
| Nc1nc(N)c2c(ccc3c2ccn3Cc2ccc3cc(C(=O)O)ccc3c2)n1 | 0.004 (≈ 0.0104 µM) | > 128 | 50 (≈ 130 µM) | 140 | 100 |  | 550 | 95 | 0.004 (≈ 0.0104 µM) | ≤ 0.004 | 98.8 |
| Cc1cc2c3c(N)nc(N)nc3ccc2n1Cc1ccc(-c2ccccc2)cc1 | 4 (≈ 10.5 µM) | > 8 | 4 (≈ 10.5 µM) | 1310 | 2260 | > 32 | 1470 | 7060 | 4 (≈ 10.5 µM) | ≤ 0.004 |  |
| Nc1nc(N)c2c(ccc3c2ccn3Cc2ccc3cc(C(=O)O)ccc3n2)n1 | 32 (≈ 83.2 µM) | > 128 | > 8 | 4650 | 9570 |  | 9740 | 4210 | 32 (≈ 83.2 µM) | 0.25 (≈ 0.65 µM) | 77.4 |
| COC(=O)c1ccc(Cn2ccc3c4c(N)nc(N)nc4ccc32)c2ccccc12 | 0.004 (≈ 0.0101 µM) | 2 (≈ 5.03 µM) | 0.016 (≈ 0.0403 µM) | 190 | 180 |  | 1320 | < 100 | 0.004 (≈ 0.0101 µM) | ≤ 0.004 | 83.9 |
| Nc1nc(N)c2c(ccc3c2ccn3Cc2ccc(Br)c3ccccc23)n1 | 0.125 (≈ 0.299 µM) | 1 (≈ 2.39 µM) | 0.125 (≈ 0.299 µM) | < 100 | < 100 |  | 190 | < 100 | 0.25 (≈ 0.598 µM) | ≤ 0.004 | 74.1 |
